# Reference: patent US11058780B2, “Palpable marker composition” (TECHNICAL UNIVERSITY OF DENMARK, priority 2016, dated 2021)
# Assay: Solubility in ethanol and doping of iodo-SAIB into SAIB
# Type: physicochemical
# Settings: neat LOIB
structure (smiles),measurement,value
"CC(C)C(=O)OC[C@H]1O[C@@H](O[C@H]2[C@H](OC(=O)C(C)C)[C@@H](OC(=O)C(C)C)C(OC(=O)C(C)C)O[C@@H]2COC(=O)C(C)C)[C@H](OC(=O)C(C)C)[C@@H](OC(=O)C(C)C)[C@H]1OC(=O)C(C)C (stereo partly drawn) [LOIB, α,β Lactose Octaisobutyrate]",solubility in anhydrous EtOH,readily dissolves
